Read-outs that look alike come from different tables or passages of the source. Starred links: 1 amine or outer side, 2 acyl side, 3 side chain; linkers in the order of their positions; H or OH if unused. Positions of bridges follow the written chain, without caps; N, C: chain ends. Non-standard residues stand in square brackets, D forms with d. Groups on a side chain read outwards from the residue. Chains are numbered I, II in the order given. *: point of attachment. C20 diacid = O=C(O)CCCCCCCCCCCCCCCCCCC(=O)*; C18 diacid = O=C(O)CCCCCCCCCCCCCCCCC(=O)*; γGlu = O=C(O)[C@H](CCC(=O)[*:2])N[*:1]; εLys = N[C@@H](CCCCN[*:1])C(=O)[*:2]; NMeR = CN[C@@H](CCCNC(=N)N)C(=O)O; AEEA = NCCOCCOCC(=O)O; Aib = CC(C)(N)C(=O)O
What was measured:
Format in all cases: cell-based
Details in all cases: CreLuc reporter gene assay
hNPY2R = molecular target: T1, hNPY2R (Homo sapiens, UniProt P49146); experiment: hNPY2R CreLuc reporter gene assay in 0.5% and 100% plasma
T1 construct: expressed in transfected cells; host or cells: HEK-293 cells carrying a CRE-luciferase reporter gene
T1 sequence (P49146 1-381): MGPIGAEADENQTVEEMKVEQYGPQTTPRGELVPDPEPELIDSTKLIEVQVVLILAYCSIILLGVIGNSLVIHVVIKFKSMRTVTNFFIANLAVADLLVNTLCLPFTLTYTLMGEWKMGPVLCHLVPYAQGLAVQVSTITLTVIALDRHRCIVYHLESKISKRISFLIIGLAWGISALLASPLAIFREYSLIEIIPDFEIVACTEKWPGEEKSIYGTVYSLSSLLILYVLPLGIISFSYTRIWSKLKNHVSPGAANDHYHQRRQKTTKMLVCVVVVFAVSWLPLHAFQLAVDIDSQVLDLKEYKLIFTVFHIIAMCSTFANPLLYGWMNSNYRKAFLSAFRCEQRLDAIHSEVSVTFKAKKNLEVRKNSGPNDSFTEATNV
From the text: Example 1: hGLPR/hGIPR/hNPY2R CreLuc Assay in 0.5% and 100% Plasma
CHO and HEK-293 recombinant cell lines express a luciferase reporter gene under control of the cAMP responsive element (CRE). As a second recombinant protein the GLP-1 and NPY2 receptors were expressed in the reporter gene HEK cells, and the GIP receptor was expressed in the reporter gene CHO cells, respectively. Stimulation of these recombinant cells with an agonist leads to an increase of intracellular cAMP levels. In the presence of cAMP, the transcription factor CRE binding protein (CREB) binds to the CRE and to the CREB binding protein (CBP), which leads to transcription of the luciferase reporter gene. Peptides upon serial-dilution in 100% DMSO were transferred into 384-well assay plates with 5 μl pre-dispensed assay buffer (1×HBSS, 20 mM HEPES, pH7.4 supplemented with 0.5% human plasma) using acoustic dispensing on a Labcyte ECHO. Cryo-preserved transgenic reporter gene cells were thawed in assay buffer. 20 μl (10.000 cells/well) were added to the plate with the peptides and incubated for 4 hours at 37° C. in a humidified incubator. Following incubation, assay plates are equilibrated to room temperature, followed by addition of 25 μl of Bright-GIo™ Luciferase reagent, incubation at room temperature for 10 minutes and analysis of luminescence (Envision Reader). Concentration response evaluation of compounds was performed with 8 concentrations of peptides (covering four decades). EC50 values were calculated by non-linear regression using sigmoid concentration-response with variable slope. The same assays were run in the presence of 100% plasma with no additional buffer constituents.

hGIPR = molecular target: T2, hGIPR (Homo sapiens, UniProt P48546); experiment: hGIPR CreLuc reporter gene assay in 0.5% and 100% plasma
T2 construct: expressed in transfected cells; host or cells: CHO cells carrying a CRE-luciferase reporter gene
T2 sequence (P48546 22-466): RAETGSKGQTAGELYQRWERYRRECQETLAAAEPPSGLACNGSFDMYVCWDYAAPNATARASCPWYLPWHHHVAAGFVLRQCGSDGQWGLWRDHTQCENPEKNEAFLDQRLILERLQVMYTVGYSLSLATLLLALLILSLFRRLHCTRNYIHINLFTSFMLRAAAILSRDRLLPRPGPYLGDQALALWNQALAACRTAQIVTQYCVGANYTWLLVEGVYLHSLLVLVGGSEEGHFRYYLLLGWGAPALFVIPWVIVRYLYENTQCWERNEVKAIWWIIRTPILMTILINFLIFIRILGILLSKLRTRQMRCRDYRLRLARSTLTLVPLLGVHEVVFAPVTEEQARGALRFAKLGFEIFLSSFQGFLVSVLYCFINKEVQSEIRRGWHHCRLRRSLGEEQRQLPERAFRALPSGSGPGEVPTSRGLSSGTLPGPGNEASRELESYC
Summary of the method: (§1)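 HEK cells (GLP-1R, NPY2R) or CHO cells (GIPR) carrying a CRE-luciferase reporter, incubated 4 h at 37 °C with peptides in HBSS/20 mM HEPES pH 7.4 plus 0.5% human plasma, or in 100% plasma. Luminescence read; EC50 from 8-point variable-slope sigmoid fits.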

hGLP1R = molecular target: T3, hGLP1R (Homo sapiens, UniProt P43220); experiment: hGLP1R CreLuc reporter gene assay in 0.5% and 100% plasma
T3 construct: expressed in transfected cells; host or cells: HEK-293 cells carrying a CRE-luciferase reporter gene
T3 sequence (P43220 24-463): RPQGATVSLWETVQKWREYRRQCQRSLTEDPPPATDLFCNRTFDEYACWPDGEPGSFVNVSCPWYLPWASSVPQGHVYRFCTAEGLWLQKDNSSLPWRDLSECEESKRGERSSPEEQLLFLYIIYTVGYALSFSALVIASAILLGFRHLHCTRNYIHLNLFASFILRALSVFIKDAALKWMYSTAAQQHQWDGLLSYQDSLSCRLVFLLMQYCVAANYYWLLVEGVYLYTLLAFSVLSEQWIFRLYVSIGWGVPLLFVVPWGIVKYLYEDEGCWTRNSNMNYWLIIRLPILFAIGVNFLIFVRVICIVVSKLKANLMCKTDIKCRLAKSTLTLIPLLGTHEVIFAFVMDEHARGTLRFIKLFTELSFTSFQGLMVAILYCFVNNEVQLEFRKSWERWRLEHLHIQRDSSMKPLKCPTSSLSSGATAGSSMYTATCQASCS
Summary of the method: as §1

[1] = 0.5% human plasma, read-out: hNPY2R 0.5% hP
[2] = 100% human plasma, read-out: hNPY2R 100% hP
[3] = 0.5% human plasma, read-out: hGIPR 0.5% hP
[4] = 0.5% human plasma, read-out: hGLP1R 0.5% hP
[5] = 100% human plasma, read-out: hGIPR 100% hP
[6] = 100% human plasma, read-out: hGLP1R 100% hP

Row | EC50 (hNPY2R; [1]) | EC50 (hNPY2R; [2]) | EC50 (hGIPR; [3]) | EC50 (hGLP1R; [4]) | EC50 (hGIPR; [5]) | EC50 (hGLP1R; [6]) | Substance
1 | 13.4 nM | 36.8 nM | 0.55 nM | 0.12 nM | – | – | H-Y[Aib]EGTFTSDYSI[Aib]LEKQAQ[Aib]AFVQWLIK([AEEA-AEEA-γGlu-γGlu-γGlu-γGlu-γGlu-C20 diacid])GGPSEPASLRHYYNWLTRQRY-NH2 [Compound 111, Y-Aib-E-G-T-F-T-S-D-Y-S-I-Aib-L-E-K-Q-A-Q-Aib-A-F-V-Q-W-L-I-K(1,3)-GGPSEPASLRHYYNWLTRQRY-NH2.C20DA-gGlu-gGlu-gGlu-gGlu-gGlu-OEG-OEG(1,2)]
2 | 18.6 nM | – | 0.58 nM | 0.15 nM | 0.79 nM | 4.76 nM | H-Y[Aib]EGTFTSDYSI[Aib]LEKQAQ[Aib]AFVQWLIK([εLys-γGlu-γGlu-γGlu-γGlu-γGlu-γGlu-C18 diacid])GGPEEGASLRHYYNWLTRQRY-NH2 [Compound 149, Y-Aib-E-G-T-F-T-S-D-Y-S-I-Aib-L-E-K-Q-A-Q-Aib-A-F-V-Q-W-L-I-K(1,3)-GGPEEGASLRHYYNWLTRQRY-NH2.C18DA-gGlu-gGlu-gGlu-gGlu-gGlu-gGlu-eLys(1,2)]
3 | 11.8 nM | 35.3 nM | 0.4 nM | 0.25 nM | – | – | H-Y[Aib]EGTFTSDYSI[Aib]LEKQAQ[Aib]EFVQWLIK([γGlu-γGlu-γGlu-γGlu-γGlu-C18 diacid])GGPSEGASLRHYYNWLTRQRY-NH2 [Compound 141, Y-Aib-E-G-T-F-T-S-D-Y-S-I-Aib-L-E-K-Q-A-Q-Aib-E-F-V-Q-W-L-I-K(1,3)-GGPSEGASLRHYYNWLTRQRY-NH2.C18DA-gGlu-gGlu-gGlu-gGlu-gGlu(1,2)]
4 | 16.7 nM | – | 0.28 nM | 0.11 nM | 1.82 nM | 3.95 nM | I: H-Y[Aib]EGTFTSDYSI[Aib]LEKQAQ[Aib]AFVQWLIKGGPSEGASLRHYYNWLTRQRY-NH2 / II: {C18 diacid}-EEEEEE (amide I:28-II:C) [Compound 264, Y-Aib-E-G-T-F-T-S-D-Y-S-I-Aib-L-E-K-Q-A-Q-Aib-A-F-V-Q-W-L-I-K(1,3)-GGPSEGASLRHYYNWLTRQRY-NH2.C18DA-E-E-E-E-E-E(1,2)]
5 | – | 15.4 nM | 0.32 nM | 0.16 nM | 2.43 nM | – | H-Y[Aib]EGTFTSDYSI[Aib]LEKQAQ[Aib]AFVQWLIK([εLys-γGlu-γGlu-γGlu-γGlu-γGlu-γGlu-C20 diacid])GGPSSYVSLRHYYNWLTRQRY-NH2 [Compound 15, Y-Aib-E-G-T-F-T-S-D-Y-S-I-Aib-L-E-K-Q-A-Q-Aib-A-F-V-Q-W-L-I-K(1,3)-GGPSSYVSLRHYYNWLTRQRY-NH2.C20DA-gGlu-gGlu-gGlu-gGlu-gGlu-gGlu-eLys(1,2)]

The remaining lines, values behind:

Row | Substance | EC50 (hNPY2R; [1]) | EC50 (hNPY2R; [2]) | EC50 (hGIPR; [3]) | EC50 (hGLP1R; [4]) | EC50 (hGIPR; [5]) | EC50 (hGLP1R; [6])
6 | H-Y[Aib]EGTFTSDYSI[Aib]LEKQAQ[Aib]AFVEWLIK([εLys-γGlu-γGlu-γGlu-γGlu-γGlu-γGlu-C20 diacid])GGPSEGQSLRHYYNWLTRQRY-NH2 [Compound 227, Y-Aib-E-G-T-F-T-S-D-Y-S-I-Aib-L-E-K-Q-A-Q-Aib-A-F-V-E-W-L-I-K(1,3)-GGPSEGQSLRHYYNWLTRQRY-NH2.C20DA-gGlu-gGlu-gGlu-gGlu-gGlu-gGlu-eLys(1,2)] | 10.2 nM | – | 0.06 nM | 0.13 nM | 1.23 nM | 3.07 nM
7 | H-Y[Aib]EGTFTSDYSI[Aib]LEKQAQ[Aib]AFVQWLIK([AEEA-AEEA-γGlu-γGlu-γGlu-γGlu-γGlu-C18 diacid])GGPSEGASLRHYYNWLTRQRY-NH2 [Compound 246, Y-Aib-E-G-T-F-T-S-D-Y-S-I-Aib-L-E-K-Q-A-Q-Aib-A-F-V-Q-W-L-I-K(1,3)-GGPSEGASLRHYYNWLTRQRY-NH2.C18DA-gGlu-gGlu-gGlu-gGlu-gGlu-OEG-OEG(1,2)] | 12.8 nM | 28.2 nM | 0.16 nM | 0.11 nM | 0.95 nM | –
8 | H-Y[Aib]EGTFTSDYSI[Aib]LEKQAQ[Aib]AFVEWLIK([AEEA-AEEA-γGlu-γGlu-γGlu-γGlu-C20 diacid])GGPSEGASLRHYYNWLTRQRY-NH2 [Compound 287, Y-Aib-E-G-T-F-T-S-D-Y-S-I-Aib-L-E-K-Q-A-Q-Aib-A-F-V-E-W-L-I-K(1,3)-GGPSEGASLRHYYNWLTRQRY-NH2.C20DA-gGlu-gGlu-gGlu-gGlu-OEG-OEG(1,2)] | 13.3 nM | 45.9 nM | 0.34 nM | 0.27 nM | – | –
9 | H-Y[Aib]EGTFTSDYSI[Aib]LEKQAE[Aib]AFVQWLIK([εLys-γGlu-γGlu-γGlu-γGlu-γGlu-C20 diacid])GGPSEGASLRHYYNWLTRQRY-NH2 [Compound 200, Y-Aib-E-G-T-F-T-S-D-Y-S-I-Aib-L-E-K-Q-A-E-Aib-A-F-V-Q-W-L-I-K(1,3)-GGPSEGASLRHYYNWLTRQRY-NH2.C20DA-gGlu-gGlu-gGlu-gGlu-gGlu-eLys(1,2)] | 12.1 nM | – | 0.37 nM | 0.48 nM | – | –
10 | H-Y[Aib]EGTFTSDYSI[Aib]LEKQAQ[Aib]AFVEWLIK([εLys-γGlu-γGlu-γGlu-γGlu-γGlu-C18 diacid])GGPESGASLRHYYNWLTRQRY-NH2 [Compound 152, Y-Aib-E-G-T-F-T-S-D-Y-S-I-Aib-L-E-K-Q-A-Q-Aib-A-F-V-E-W-L-I-K(1,3)-GGPESGASLRHYYNWLTRQRY-NH2.C18DA-gGlu-gGlu-gGlu-gGlu-gGlu-eLys(1,2)] | 12.6 nM | – | 0.4 nM | 0.13 nM | 0.96 nM | 4.24 nM
11 | H-Y[Aib]EGTFTSDYSI[Aib]LEKQAQ[Aib]AFVEWLIK([γGlu-γGlu-γGlu-γGlu-γGlu-C18 diacid])GGPSSPASLRHYYNWLTRQRY-NH2 [Compound 180, Y-Aib-E-G-T-F-T-S-D-Y-S-I-Aib-L-E-K-Q-A-Q-Aib-A-F-V-E-W-L-I-K(1,3)-GGPSSPASLRHYYNWLTRQRY-NH2.C18DA-gGlu-gGlu-gGlu-gGlu-gGlu(1,2)] | – | 107 nM | 0.2 nM | 0.1 nM | – | –
12 | H-Y[Aib]EGTFTSDYSI[Aib]LEKQAQ[Aib]AFVEWLIK([εLys-γGlu-γGlu-γGlu-γGlu-γGlu-γGlu-C20 diacid])GGPSEGASLRHYYNWLTRQ[NMeR]Y-NH2 [Compound 236, Y-Aib-E-G-T-F-T-S-D-Y-S-I-Aib-L-E-K-Q-A-Q-Aib-A-F-V-E-W-L-I-K(1,3)-G-G-P-S-E-G-A-S-L-R-H-Y-Y-N-W-L-T-R-Q-NMeR-Y-NH2.C20DA-gGlu-gGlu-gGlu-gGlu-gGlu-gGlu-eLys(1,2)] | 31 nM | – | 0.3 nM | 0.26 nM | – | –
13 | H-Y[Aib]EGTFTSDYSI[Aib]LEKQAQ[Aib]AFVQWLIK([AEEA-AEEA-Glu-Glu-Glu-Glu-C20 diacid])GGPSEGASLRHYYNWLTRQRY-NH2 [Compound 239, Y-Aib-E-G-T-F-T-S-D-Y-S-I-Aib-L-E-K-Q-A-Q-Aib-A-F-V-Q-W-L-I-K(1,3)-GGPSEGASLRHYYNWLTRQRY-NH2.C20DA-E-E-E-E-OEG-OEG(1,2)] | 13.6 nM | – | 0.35 nM | 0.11 nM | – | 4.76 nM

— patent US20240247080A1, “GLP1/GIP/NPY2 RECEPTOR TRIPLE AGONISTS” (Boehringer Ingelheim International GmbH, priority 2022, published 2024)
